For data set [1], the target named is T1, Glucocorticoid receptor (Homo sapiens, UniProt P04150).
T1 sequence (P04150 whole entry): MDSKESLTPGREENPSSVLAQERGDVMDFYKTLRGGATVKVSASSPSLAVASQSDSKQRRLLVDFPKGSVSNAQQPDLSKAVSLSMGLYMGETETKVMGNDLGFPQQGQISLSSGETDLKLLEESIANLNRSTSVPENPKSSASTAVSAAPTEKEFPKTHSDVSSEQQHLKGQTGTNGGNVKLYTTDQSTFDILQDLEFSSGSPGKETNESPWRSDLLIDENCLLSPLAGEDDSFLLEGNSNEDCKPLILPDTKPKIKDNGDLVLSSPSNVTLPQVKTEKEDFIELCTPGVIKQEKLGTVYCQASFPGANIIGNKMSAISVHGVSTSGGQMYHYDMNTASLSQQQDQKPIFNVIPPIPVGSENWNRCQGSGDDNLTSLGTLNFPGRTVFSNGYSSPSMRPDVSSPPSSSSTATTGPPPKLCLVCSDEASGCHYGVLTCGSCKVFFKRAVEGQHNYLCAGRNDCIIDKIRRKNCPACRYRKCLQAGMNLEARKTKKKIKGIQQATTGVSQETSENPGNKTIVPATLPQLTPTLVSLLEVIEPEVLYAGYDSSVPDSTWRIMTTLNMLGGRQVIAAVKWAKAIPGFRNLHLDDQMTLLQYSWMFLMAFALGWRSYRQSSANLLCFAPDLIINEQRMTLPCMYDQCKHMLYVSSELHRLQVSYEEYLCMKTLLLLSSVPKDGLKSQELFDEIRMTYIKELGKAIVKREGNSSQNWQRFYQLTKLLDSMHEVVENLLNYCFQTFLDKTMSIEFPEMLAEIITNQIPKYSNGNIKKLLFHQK
Put plainly: Displacement of [3H]dexamethasone from human recombinant GR. On the technique in general: Loss of bound radioactivity is the signal in a displacement assay; it reports binding, not function.

In data set [2] the target is T1, Glucocorticoid receptor. The data set is described as follows: Antagonist activity at human GR. The class given is functional.
Another data set deals with T2, Progesterone receptor (Homo sapiens, UniProt P06401).
T2 sequence (P06401 whole entry): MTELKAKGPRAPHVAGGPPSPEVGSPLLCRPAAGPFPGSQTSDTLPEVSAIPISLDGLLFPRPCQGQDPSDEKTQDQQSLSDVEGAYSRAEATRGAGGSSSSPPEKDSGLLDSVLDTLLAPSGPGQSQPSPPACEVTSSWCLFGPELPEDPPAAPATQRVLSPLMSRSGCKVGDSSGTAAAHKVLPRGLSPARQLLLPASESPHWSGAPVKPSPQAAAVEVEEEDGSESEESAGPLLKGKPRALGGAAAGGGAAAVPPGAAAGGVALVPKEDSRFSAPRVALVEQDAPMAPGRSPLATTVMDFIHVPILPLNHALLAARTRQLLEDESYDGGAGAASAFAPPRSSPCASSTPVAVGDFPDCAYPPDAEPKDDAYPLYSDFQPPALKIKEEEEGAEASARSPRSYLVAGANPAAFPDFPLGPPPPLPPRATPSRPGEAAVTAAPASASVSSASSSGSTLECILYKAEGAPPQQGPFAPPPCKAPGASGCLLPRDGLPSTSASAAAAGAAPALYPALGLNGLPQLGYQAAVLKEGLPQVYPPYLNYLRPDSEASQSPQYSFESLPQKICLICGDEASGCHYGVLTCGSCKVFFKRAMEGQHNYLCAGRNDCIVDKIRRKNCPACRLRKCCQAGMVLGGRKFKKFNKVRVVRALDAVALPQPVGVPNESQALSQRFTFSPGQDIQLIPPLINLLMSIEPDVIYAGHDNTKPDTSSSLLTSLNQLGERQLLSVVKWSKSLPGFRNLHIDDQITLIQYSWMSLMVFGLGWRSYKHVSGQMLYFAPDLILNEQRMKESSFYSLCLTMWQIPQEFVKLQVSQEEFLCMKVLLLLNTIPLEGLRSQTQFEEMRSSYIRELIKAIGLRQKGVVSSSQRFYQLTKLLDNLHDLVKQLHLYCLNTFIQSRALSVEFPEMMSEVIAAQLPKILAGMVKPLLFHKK
The data set is described as follows: Displacement of [3H]progesterone from progesterone receptor.

The nature of data set [3]: AUC in rat at 5 mg/kg, po. The class given is ADME, organism-based. Set-up: dose 5 mg/kg, route oral. To be noted: plasma.
The target of the next data set is CYP3A4 (Homo sapiens, UniProt P08684). The data set is described as follows: Inhibition of CYP3A4 at 1 uM. The data set is classed as ADME.
A short description of data set [4]: Cmax in rat at 5 mg/kg, po. The data set is classed as ADME, organism-based. Set-up: dose 5 mg/kg, route oral. The following applies: in vivo.
The next data set relates to Brain. The data set is described as follows: Drug level in rat brain at 1 mg/kg, iv. The class given is ADME, organism-based. Set-up: dose 1 mg/kg, route intravenous. To be noted: in vivo.
The test system of the next data set is Plasma. Put plainly: Drug lavel in rat plasma at 1 mg/kg, iv. The class given is ADME, organism-based. Set-up: dose 1 mg/kg, route intravenous. To be noted: in vivo.
Data set [5] is described as follows: Metabolic stability in human […] S9 fraction after 30 mins. The class given is ADME. The following applies: read-out: Stability.
Data set [6] addresses T3, Mineralocorticoid receptor (Homo sapiens, UniProt P08235).
T3 sequence (P08235 whole entry): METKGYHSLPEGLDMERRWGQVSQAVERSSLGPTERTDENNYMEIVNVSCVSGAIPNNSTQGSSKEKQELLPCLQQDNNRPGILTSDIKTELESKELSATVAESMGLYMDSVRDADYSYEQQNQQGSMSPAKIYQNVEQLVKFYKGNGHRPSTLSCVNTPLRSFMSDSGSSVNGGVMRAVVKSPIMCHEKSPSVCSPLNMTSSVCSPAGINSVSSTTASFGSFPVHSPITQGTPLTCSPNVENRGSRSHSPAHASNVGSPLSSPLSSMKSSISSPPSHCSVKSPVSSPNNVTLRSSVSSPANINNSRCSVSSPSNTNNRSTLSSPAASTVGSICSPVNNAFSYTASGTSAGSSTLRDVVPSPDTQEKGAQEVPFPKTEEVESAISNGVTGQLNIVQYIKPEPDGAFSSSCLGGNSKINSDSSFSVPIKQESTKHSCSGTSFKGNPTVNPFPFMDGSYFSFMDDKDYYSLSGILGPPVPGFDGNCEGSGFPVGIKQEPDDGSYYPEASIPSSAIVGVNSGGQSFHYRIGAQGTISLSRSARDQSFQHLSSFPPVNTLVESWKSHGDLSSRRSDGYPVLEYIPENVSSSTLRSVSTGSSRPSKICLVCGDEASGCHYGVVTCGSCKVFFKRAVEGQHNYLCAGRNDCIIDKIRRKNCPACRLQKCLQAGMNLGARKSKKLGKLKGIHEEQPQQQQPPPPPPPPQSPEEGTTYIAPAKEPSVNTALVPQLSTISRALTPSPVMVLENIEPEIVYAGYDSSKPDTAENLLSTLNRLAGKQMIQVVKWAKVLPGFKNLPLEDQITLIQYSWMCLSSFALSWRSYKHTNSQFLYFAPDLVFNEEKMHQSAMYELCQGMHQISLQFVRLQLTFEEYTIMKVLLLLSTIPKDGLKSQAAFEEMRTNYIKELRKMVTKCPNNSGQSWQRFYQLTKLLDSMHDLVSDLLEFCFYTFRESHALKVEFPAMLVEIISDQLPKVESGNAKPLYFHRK
The data set is described as follows: biochemical.
Description: Displacement of [3H]aldosterone from mineralocorticoid receptor expressed in Sf9 cells

In data set [7] the target is T4, Glucocorticoid receptor (Homo sapiens) (UniProt P04150).
T4 sequence (whole entry): T1 sequence (P04150 whole entry)
The data set is described as follows: Displacement of [3H]dexamethasone from glucocorticoid receptor at 1 uM.

Molecules are shown by their SMILES.

CYP3A4, sequence (P08684 whole entry): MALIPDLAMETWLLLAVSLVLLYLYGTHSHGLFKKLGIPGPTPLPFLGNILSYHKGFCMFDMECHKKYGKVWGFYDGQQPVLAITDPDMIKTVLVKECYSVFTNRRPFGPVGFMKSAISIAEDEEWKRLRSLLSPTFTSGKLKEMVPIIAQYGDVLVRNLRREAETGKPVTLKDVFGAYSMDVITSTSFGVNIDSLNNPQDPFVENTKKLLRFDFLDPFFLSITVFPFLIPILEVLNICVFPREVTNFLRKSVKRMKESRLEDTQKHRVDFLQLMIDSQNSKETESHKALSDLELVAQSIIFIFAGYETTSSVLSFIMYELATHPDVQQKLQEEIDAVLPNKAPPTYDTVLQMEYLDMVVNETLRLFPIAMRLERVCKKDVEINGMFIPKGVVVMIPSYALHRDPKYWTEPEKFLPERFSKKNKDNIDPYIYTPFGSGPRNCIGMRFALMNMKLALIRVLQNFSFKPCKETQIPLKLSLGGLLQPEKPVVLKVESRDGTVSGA

Broadly, the Ki is a measure of affinity in units of concentration, obtained from inhibition or displacement. As to `O=c1[nH]c(N2CCC(c3ccccc3)CC2)c(Cc2cccc(Cl)c2)c(=O)[nH]1`, the Ki at Glucocorticoid receptor [1] turned out to be 9.1 nM; on Glucocorticoid receptor [2], 96 nM; at Progesterone receptor, 7050 nM. As usually defined, the AUC is the area under the concentration-time curve, a measure of exposure. Broadly, the inhibition is the percentage by which the read-out fell short of the control. A high value points to strong suppression. One may read the Cmax as the highest concentration seen after dosing. In the case of `O=c1[nH]c(N2CCC(c3ccccc3)CC2)c(Cc2ccccc2)c(=O)[nH]1`, in [3], the area under the curve (AUC) amounted to 600 ng·h/mL. Further, the values for the inhibitory constant (Ki) (on Glucocorticoid receptor [1]; at Glucocorticoid receptor [2]; in data set [6]) were 8.1 nM, 93 nM and 930 nM, respectively. The inhibition at 1 µM against CYP3A4 is 25%. In [4], this compound came in with a peak concentration (Cmax) of 143 ng/mL. The same compound came in with a Drug uptake with Brain of 45 ng/g. The compound also registered a Cp with Plasma of 178 ng/mL. For the same compound, in [5], the remaining at 0.5 h amounted to 94%.

Turning to `Cn1c(=O)[nH]c(N2CCC(O)CC2)c(Cc2cccc(C(F)(F)F)c2)c1=O`, the Ki at Glucocorticoid receptor [1] was 4500 nM. In data set [7], `CC(=O)Nc1cccc(C2CCN(c3[nH]c(=O)[nH]c(=O)c3Cc3ccccc3)CC2)c1` returned an inhibition of 11%.

The compound `Cn1c(N2CCC(Cc3ccccc3)CC2)c(Cc2ccccc2)c(=O)[nH]c1=O` came in with an inhibition in data set [7] of 11%. As for `Cn1c(=O)[nH]c(N2CCC(Cc3ccccc3)CC2)c(Cc2ccccc2Br)c1=O`, the Ki at Glucocorticoid receptor [1] worked out at 33 nM; at Glucocorticoid receptor [2] it was 300 nM. On to `Cn1c(=O)[nH]c(N2CCC(O)(Cc3ccccc3)CC2)c(Cc2ccccc2)c1=O`, for which the inhibition constant (Ki) on Glucocorticoid receptor [1] stood at 360 nM. In turn, `Cn1c(=O)[nH]c(N2CCc3ccccc3C2)c(Cc2ccccc2)c1=O` came in with an inhibition in [7] of 23%. For `COc1ccc(C2CCN(c3[nH]c(=O)[nH]c(=O)c3Cc3ccccc3)CC2)cc1`, at Glucocorticoid receptor [1], the Ki was 45 nM.

Turning to `Cn1c(=O)[nH]c(N2CCC(c3ccccc3)CC2)c(Cc2ccccc2)c1=O`, the inhibitory constant (Ki) at Glucocorticoid receptor [1] came out at 20 nM; on Glucocorticoid receptor [2] it was 190 nM. In the case of `O=c1[nH]c(N2CCC(c3ccccc3)CC2)c(Cc2ccccc2Cl)c(=O)[nH]1`, the results for the Ki (on Glucocorticoid receptor [1]; on Glucocorticoid receptor [2]; in [6]) were 8.7 nM, 50 nM and 3490 nM, respectively. The compound `N#Cc1ccc(Cc2c(N3CCC(c4ccccc4)CC3)[nH]c(=O)[nH]c2=O)cc1` yielded an inhibition in data set [7] of 37%. `O=c1[nH]c(N2CCC(c3ccccc3)CC2)c(Cc2ccc(Cl)cc2)c(=O)[nH]1`: the inhibition constant (Ki) amounted to 31 nM on Glucocorticoid receptor [1] and 260 nM on Glucocorticoid receptor [2]. The like results for `O=c1[nH]c(N2CCC(Cc3ccccc3)CC2)c(Cc2ccccc2)c(=O)[nH]1` were, in that order, 19 nM and 150 nM. As for `O=c1[nH]c(N2CCC(c3ccccc3)CC2)c(Cc2cccc(Br)c2)c(=O)[nH]1`, the Ki on Glucocorticoid receptor [1] is 14 nM; at Glucocorticoid receptor [2], 65 nM.

In the case of `CC(=O)Nc1ccc(C2CCN(c3[nH]c(=O)[nH]c(=O)c3Cc3ccccc3)CC2)cc1`, the Ki at Glucocorticoid receptor [1] worked out at 46 nM.

`COc1cccc(Cc2c(N3CCC(c4ccccc4)CC3)[nH]c(=O)[nH]c2=O)c1` yielded an inhibition in data set [7] of 31%.

The compound `CC1CCN(c2[nH]c(=O)n(C)c(=O)c2Cc2ccccc2)CC1` returned an inhibition in [7] of 2%. As for `COc1ccccc1C1CCN(c2[nH]c(=O)[nH]c(=O)c2Cc2ccccc2)CC1`, the results for the inhibitory constant (Ki) (on Glucocorticoid receptor [1]; in data set [6]) were 7.1 nM and 298 nM, respectively. In the case of `COc1cccc(C2CCN(c3[nH]c(=O)[nH]c(=O)c3Cc3ccccc3)CC2)c1`, the inhibition constant (Ki) at Glucocorticoid receptor [1] worked out at 9.2 nM; on Glucocorticoid receptor [2] it was 158 nM; in data set [6], 1270 nM. As for `Cn1c(=O)[nH]c(N2CCC(Oc3ccccc3)CC2)c(Cc2ccccc2)c1=O`, the Ki at Glucocorticoid receptor [1] came to 78 nM. With `O=c1[nH]c(N2CCC(c3cccc(Cl)c3)CC2)c(Cc2ccccc2)c(=O)[nH]1`, the Ki in data set [6] stood at 527 nM. For `N#Cc1cccc(Cc2c(N3CCC(c4ccccc4)CC3)[nH]c(=O)[nH]c2=O)c1`, the Ki at Glucocorticoid receptor [1] was found to be 37 nM. In turn, `Cn1c(=O)[nH]c(N2CCC(CCCc3ccccc3)CC2)c(Cc2ccccc2)c1=O` displayed an inhibition in data set [7] of 18%. Take `Cn1c(=O)[nH]c(N2CCC(Cc3ccccc3)CC2)c(Cc2ccccc2)c1=O`: the figures for the Ki on Glucocorticoid receptor [1] and on Glucocorticoid receptor [2] were 24 nM and 100 nM, respectively.

The record behind these values is ChEMBL document CHEMBL1146208, “Discovery and optimization of novel, non-steroidal glucocorticoid receptor modulators” (Bioorg Med Chem Lett, 2007).
